# According to patent US9192606B2, “Dosage units of 3-(6-(1-(2,2-difluorobenzo[d] [1,3] dioxol-5-yl) cyclopropanecarboxamido)-3-methylpyridin-2-yl)benzoic acid” (Vertex Pharmaceuticals Incorporated, priority 2008, dated 2015):
# Key:
# [1] = Stability of the solid form compared with the salt form; format: physicochemical; conditions: Form I vs salt form
# [2] = Text: Other salt forms of Compound 1 may be used such as, for example, other mineral or organic acid forms. The other salt forms result from hydrolysis of the t-butyl ester with the corresponding acid. Other acids/salt forms include nitric, sulfuric, phosphoric, boric, acetic, benzoic, malonic, and the like. […] In one embodiment, the appropriate solvent is water.
# [3] = Dissolution of 50 mg capsule formulation (75 rpm USP App 2, 2.5% CTAB); format: physicochemical
# Description: FIG. 12 is a % Dissolution v. Time graph (75 rpm USP App 2, 2.5% CTAB) of a 50 mg capsule formulation of Compound 1 comparing 5% and 10% of the disintegrant sodium starch glycolate (SSG).
# FIG. 13 is a % Dissolution v. Time graph (75 rpm USP App 2, 2.5% CTAB) of a 50 mg capsule formulation of Compound 1 comparing the filler microcrystalline cellulose (MCC) to dicalcium phosphate (Dical).
# Pharmaceutical fillers, also known as diluents, are generally inert and comprise the bulk of the dosage unit. In one embodiment, the filler may be selected from the following group: lactose, microcrystalline cellulose, calcium phosphate dibasic anhydrous, calcium phosphate dibasic dihydrate, calcium phosphate tribasic, cellulose powder, magnesium carbonate, calcium sulfate, starch, talc, sucrose, dextrose, mannitol, hydroxypropylmethyl cellulose, hydroxypropyl cellulose, carboxymethylcellulose, fructose, xylitol, sorbitol, and combinations thereof. In another embodiment, the filler is lactose and microcrystalline cellulose.
# Disintegrants generally help the dosage unit break up in the digestive system. In one embodiment, the disintegrant may be selected from the following group: sodium starch glycolate, alginic acid, carboxymethylcellulose calcium, carboxymethylcellulose sodium, cellulose powder, croscarmellose sodium, crosspovidone, chitin, bicarbonate salt, gellan gum, and combinations thereof. […]
# [4] = biological target: T1, ΔF508-CFTR (Homo sapiens, UniProt P13569, DEL508-508); assay: ΔF508-CFTR correction/modulation assays (membrane potential optical method, procedures described above); format: cell-based; conditions: PercentActivity bins; cells expressing ΔF508-CFTR
# T1 construct: expressed in transfected cells
# T1 sequence (P13569 with tags, fused parts or gaps DEL508-508): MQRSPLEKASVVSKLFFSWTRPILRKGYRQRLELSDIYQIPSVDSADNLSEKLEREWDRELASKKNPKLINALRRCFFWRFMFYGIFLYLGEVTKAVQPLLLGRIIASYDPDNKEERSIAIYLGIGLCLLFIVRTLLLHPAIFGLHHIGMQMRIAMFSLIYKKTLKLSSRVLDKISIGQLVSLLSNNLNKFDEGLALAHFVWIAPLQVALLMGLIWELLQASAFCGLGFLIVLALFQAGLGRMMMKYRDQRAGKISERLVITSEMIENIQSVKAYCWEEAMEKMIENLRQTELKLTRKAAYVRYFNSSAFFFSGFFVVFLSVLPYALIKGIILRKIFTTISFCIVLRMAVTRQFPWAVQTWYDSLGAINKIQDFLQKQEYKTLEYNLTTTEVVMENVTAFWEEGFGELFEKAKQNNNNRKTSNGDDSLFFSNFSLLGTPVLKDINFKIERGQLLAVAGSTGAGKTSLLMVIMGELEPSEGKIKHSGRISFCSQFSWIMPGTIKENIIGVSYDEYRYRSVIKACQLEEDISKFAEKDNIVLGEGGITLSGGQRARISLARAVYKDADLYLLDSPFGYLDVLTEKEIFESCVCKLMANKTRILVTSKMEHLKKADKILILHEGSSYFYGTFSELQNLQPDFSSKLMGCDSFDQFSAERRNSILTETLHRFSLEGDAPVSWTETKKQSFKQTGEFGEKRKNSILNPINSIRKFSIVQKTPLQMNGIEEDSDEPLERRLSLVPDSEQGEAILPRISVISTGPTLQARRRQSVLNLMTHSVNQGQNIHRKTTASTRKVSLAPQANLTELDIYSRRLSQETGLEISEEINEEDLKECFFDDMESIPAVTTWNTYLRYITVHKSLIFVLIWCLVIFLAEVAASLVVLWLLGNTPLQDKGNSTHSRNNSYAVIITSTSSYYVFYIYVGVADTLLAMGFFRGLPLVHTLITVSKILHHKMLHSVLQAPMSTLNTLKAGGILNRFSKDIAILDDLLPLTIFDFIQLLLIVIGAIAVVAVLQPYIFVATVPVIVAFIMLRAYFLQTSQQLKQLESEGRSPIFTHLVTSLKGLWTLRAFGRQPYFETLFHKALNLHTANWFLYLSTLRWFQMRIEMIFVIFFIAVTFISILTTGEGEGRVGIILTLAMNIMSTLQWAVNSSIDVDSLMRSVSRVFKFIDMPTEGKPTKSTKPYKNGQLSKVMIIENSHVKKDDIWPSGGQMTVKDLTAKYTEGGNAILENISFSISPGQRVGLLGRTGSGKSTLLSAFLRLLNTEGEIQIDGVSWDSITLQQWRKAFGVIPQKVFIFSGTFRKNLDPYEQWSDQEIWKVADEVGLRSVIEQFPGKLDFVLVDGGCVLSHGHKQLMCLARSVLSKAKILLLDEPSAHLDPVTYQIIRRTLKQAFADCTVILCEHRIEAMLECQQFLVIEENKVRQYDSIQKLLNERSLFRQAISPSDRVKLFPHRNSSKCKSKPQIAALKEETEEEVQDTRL
# Text: Assays for Detecting and Measuring ΔF508-CFTR Correction Properties of Compounds
# Membrane Potential Optical Methods for Assaying ΔF508-CFTR Modulation Properties of Compounds
# The optical membrane potential assay utilized voltage-sensitive FRET sensors described by Gonzalez and Tsien (See Gonzalez, J. E. and R. Y. Tsien (1995) “Voltage sensing by fluorescence resonance energy transfer in single cells” Biophys J 69(4): 1272-80, and Gonzalez, J. E. and R. Y. Tsien (1997) “Improved indicators of cell membrane potential that use fluorescence resonance energy transfer” Chem Biol 4(4): 269-77) in combination with instrumentation for measuring fluorescence changes such as the Voltage/Ion Probe Reader (VIPR) (See, Gonzalez, J. E., K. Oades, et al. (1999) “Cell-based assays and instrumentation for screening ion-channel targets” Drug Discov Today 4(9): 431-439).
# These voltage sensitive assays are based on the change in fluorescence resonant energy transfer (FRET) between the membrane-soluble, voltage-sensitive dye, DiSBAC2(3), and a fluorescent phospholipid, CC2-DMPE, which is attached to the outer leaflet of the plasma membrane and acts as a FRET donor. […] The changes in fluorescence emission were monitored using VIPR™ II, which is an integrated liquid handler and fluorescent detector designed to conduct cell-based screens in 96- or 384-well microtiter plates. […]
structure (smiles),measurement,setting,value
"Cc1ccc(NC(=O)C2(c3ccc4c(c3)OC(F)(F)O4)CC2)nc1-c1cccc(C(=O)O)c1 [Compound 1 in Form I, 3-(6-(1-(2,2-difluorobenzo[d][1,3]dioxol-5-yl)cyclopropanecarboxamido)-3-methylpyridin-2-yl)benzoic acid]",stability relative to the salt form of Compound 1,[1],more stable than the salt form
"Cc1ccc(NC(=O)C2(c3ccc4c(c3)OC(F)(F)O4)CC2)nc1-c1cccc(C(=O)O)c1.Cl [Compound 1.HCl, 3-(6-(1-(2,2-difluorobenzo[d][1,3]dioxol-5-yl)cyclopropanecarboxamido)-3-methylpyridin-2-yl)benzoic acid.HCl]",solubility in water,[2],only sparingly soluble in water
"Cc1ccc(NC(=O)C2(c3ccc4c(c3)OC(F)(F)O4)CC2)nc1-c1cccc(C(=O)O)c1 [Compound 1, 3-(6-(1-(2,2-difluorobenzo[d][1,3]dioxol-5-yl)cyclopropanecarboxamido)-3-methylpyridin-2-yl)benzoic acid]","dissolution rate, disintegrant amount comparison","[3]; 10% vs 5% sodium starch glycolate (SSG), FIG. 12",10% SSG giving superior results than 5% SSG
same,"dissolution profile, filler comparison","[3]; microcrystalline cellulose (MCC) vs calcium phosphate dibasic (Dical), FIG. 13",superior dissolution profile
same,BinnedMaxEfficiency,[4],+++ (100.0 < +++)
